In publication PMC6681222, “Discovery and Rational Design of a Novel Bowman-Birk Related Protease Inhibitor” (Biomolecules, 2019):
Values after ≈ are worked out from the molar mass of the structure shown. “Also recorded” adds a separate entry of the source. Bridge positions count the residues as written; N and C are the ends. Peptide text beside a SMILES is read from it.

Assays:
trypsin = target: T1, trypsin (Bos taurus, UniProt P00760); test: Trypsin inhibition assay; assay type: biochemical
T1 construct: gene PRSS1
T1 sequence (P00760 24-246): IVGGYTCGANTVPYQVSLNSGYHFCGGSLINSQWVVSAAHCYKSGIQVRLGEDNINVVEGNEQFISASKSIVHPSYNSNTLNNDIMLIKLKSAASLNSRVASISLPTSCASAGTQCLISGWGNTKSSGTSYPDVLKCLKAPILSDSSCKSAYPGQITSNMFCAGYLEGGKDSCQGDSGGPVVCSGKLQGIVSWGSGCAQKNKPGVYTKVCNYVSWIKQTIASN
Experimental: (§1) The trypsin, chymotrypsin inhibition tests were performed as described previously. 10 µL tryptase (1 mg/mL, Calbiochem, UK) was added to the wells of a micro-titer plate containing 180 µL substrate (Boc-Phe-Ser-Arg-NHMec, obtained from Bachem, UK) (50 µM) and 20 µL synthetic replicates (0.1–100 µM) in a tryptase buffer, pH7.6, containing 0.05 M Tris, 0.15 M NaCl, and 0.2% (w/v) polyethylene glycol 6000 (final volume 210 µL).
The inhibition curves of the trypsin/chymotrypsin inhibition assay and tryptase inhibition assay were formed as outlined before.
(§2) The progress curves for the hydrolysis of the fluorogenic substrate were used to estimate an initial rate (Vi) to generate the Morrison plots. All of the progress curves and corresponding Morrison plots in the presence of each peptide of different concentrations are shown in Figure S4.

tryptase = target: T2, tryptase (Homo sapiens, UniProt Q15661); test: Tryptase inhibition assay; assay type: biochemical; details: substrate Boc-Phe-Ser-Arg-NHMec 50 µM, peptide 0.1-100 µM, tryptase buffer pH 7.6, Morrison plot; average of three independent experiments
T2 construct: purchased Calbiochem, UK
Experimental: as §1
(§3) The rate of hydrolysis of the substrate was monitored by measuring the rate of increase of fluorescence due to the release of 7–amino–4–methylcoumarin (AMC) at 460 nm (excitation 360 nm) in a FLUOstar OPTIMA multi-well plate reader. The inhibition curves of the trypsin/chymotrypsin inhibition assay and tryptase inhibition assay were formed as outlined before.
as §2

chymotrypsin = chymotrypsin (Bos taurus, UniProt P00766); test: Chymotrypsin inhibition assay; assay type: biochemical; details: fluorogenic substrate, AMC release (ex 360/em 460 nm), Morrison plot; average of three independent experiments
Experimental: as §1, §3
as §2, with “PPF-BBI and its analogues were tested for inhibitory activity against trypsin, chymotrypsin and tryptase, respectively. The” for “The”

C. albicans (NCYC 1467) = assay type: cell-based
Experimental: (§4) The MIC and MBC of the synthetic peptides were determined as previously described, using S. aureus (NCTC 10788), E. coli (NCTC 10418) and C. albicans (NCYC 1467), together with two species of resistant micro-organisms, methicillin-resistant S. aureus (MRSA) (ATCC 12493) and P. aeruginosa (ATCC 27853).

E. coli (NCTC 10418) = assay type: cell-based
Experimental: as §4

[1] = test system: P. aeruginosa (ATCC 27853); assay type: cell-based
Experimental: as §4

S. aureus (NCTC 10788) = assay type: cell-based
Experimental: as §4

[2] = test system: methicillin-resistant S. aureus (MRSA) (ATCC 12493); assay type: cell-based
Experimental: as §4

horse erythrocytes = test: Haemolysis test; assay type: cell-based; details: 2% suspension of horse erythrocytes, 512 to 1 µM peptide, 4 h; 2% Triton X-100 = 100% haemolysis
Experimental: The haemolytic activity of each peptide was measured by incubating a range of final peptide concentrations from 512 to 1 µM in a two-fold dilution in a 2% suspension of horse erythrocytes, as described in a previous study.
Figure 4 (a) The cell viability of the cancer cell lines H460, H157, H23, H838, HT-29, PC-3, U251MG and HMEC-1 at 4 mM 5-FU (stripe bar), 100 µM and 10 µM PPF-BBI, F^8-PPF-BBI, K^16-PPF-BBI and Tat-loop. The control represents the cell viability without any treatments. The statistical significance of difference was analyzed by a one-way ANOVA (* p < 0.05, **** p < 0.0001). (b) The haemolysis rates of PPF-BBI, F^8-PPF-BBI, K^16-PPF-BBI and Tat-loop on erythrocytes after being incubated for 4 h. The incubation of erythrocytes with 2% (v/v) Triton X-100 was designated as a positive control (100% haemolysis).

T2 sequence (Q15661 31-275): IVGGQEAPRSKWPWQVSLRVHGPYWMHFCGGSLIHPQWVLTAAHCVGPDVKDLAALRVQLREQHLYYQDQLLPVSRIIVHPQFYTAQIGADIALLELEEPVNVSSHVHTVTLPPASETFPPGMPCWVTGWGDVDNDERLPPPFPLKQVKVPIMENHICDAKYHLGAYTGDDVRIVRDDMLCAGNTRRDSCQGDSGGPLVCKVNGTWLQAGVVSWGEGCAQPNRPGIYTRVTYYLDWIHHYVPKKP

SMILES	Ki (trypsin)	Ki (tryptase)	Ki (µM) of Chymotrypsin (chymotrypsin)	MBC (C. albicans (NCYC 1467))	MIC (C. albicans (NCYC 1467))	MBC (E. coli (NCTC 10418))	MIC (E. coli (NCTC 10418))	MBC [1]	MIC [1]	MBC (S. aureus (NCTC 10788))	MIC (S. aureus (NCTC 10788))	MBC [2]	MIC [2]	Ki (µM) of Trypsin (trypsin; fluorogenic substrate, AMC release (ex 360/em 460 nm), Morrison plot, average of three independent experiments)	Ki (µM) of Tryptase (tryptase)	Ki (chymotrypsin)	Haemolytic activity (horse erythrocytes)
CC[C@H](C)[C@@H]1NC(=O)[C@H](CO)NC(=O)[C@H](CCCCN)NC(=O)[C@H]([C@@H](C)O)NC(=O)[C@H](Cc2c[nH]c3ccccc23)NC(=O)[C@@H](NC(=O)CNC(=O)[C@H](CCCNC(=N)N)NC(=O)[C@H](CC(C)C)NC(=O)[C@H](C)N)CSSC[C@@H](C(=O)N[C@@H](CCCCN)C(N)=O)NC(=O)[C@@H]2CCCN2C(=O)[C@H](CCCCN)NC(=O)[C@@H]2CCCN2C(=O)[C@@H]2CCCN2C1=O [K^16-PPF-BBI] (H-ALRGCWTKSIPPKPCK-NH2; disulfide 5-15)	112 nM	9.67 µM	N.I.*	128 µM (≈ 228 µg/mL)	128 µM (≈ 228 µg/mL)	128 µM (≈ 228 µg/mL)	128 µM (≈ 228 µg/mL)	512 µM (≈ 912 µg/mL)	512 µM (≈ 912 µg/mL)	64 µM (≈ 114 µg/mL)	64 µM (≈ 114 µg/mL)	512 µM (≈ 912 µg/mL)	512 µM (≈ 912 µg/mL)	–	–	–	–
N=C(N)NCCC[C@H](NC(=O)[C@H](CCCNC(=N)N)NC(=O)[C@H](CCCNC(=N)N)NC(=O)[C@H](CCC(N)=O)NC(=O)[C@H](CCCNC(=N)N)NC(=O)[C@H](CCCNC(=N)N)NC(=O)[C@H](CCCCN)NC(=O)[C@H](CCCCN)NC(=O)[C@@H](N)CCCNC(=N)N)C(=O)O [Tat, reference compound]	–	–	–	>512 µM	>512 µM	256 µM (≈ 343 µg/mL)	256 µM (≈ 343 µg/mL)	>512 µM	>512 µM	512 µM (≈ 686 µg/mL)	512 µM (≈ 686 µg/mL)	>512 µM	>512 µM	–	–	–	–
CC[C@H](C)[C@@H]1NC(=O)[C@H](CO)NC(=O)[C@H](CCCCN)NC(=O)[C@H]([C@@H](C)O)NC(=O)[C@H](Cc2c[nH]c3ccccc23)NC(=O)[C@@H](NC(=O)CNC(=O)[C@H](CCCNC(=N)N)NC(=O)[C@H](CC(C)C)NC(=O)[C@H](C)N)CSSC[C@@H](C(=O)N2CCC[C@H]2C(N)=O)NC(=O)[C@@H]2CCCN2C(=O)[C@H](CCCCN)NC(=O)[C@@H]2CCCN2C(=O)[C@@H]2CCCN2C1=O [PPF-BBI] (H-ALRGCWTKSIPPKPCP-NH2; disulfide 5-15)	170 nM	30.7 µM	N.I.*	512 µM (≈ 897 µg/mL)	512 µM (≈ 897 µg/mL)	128 µM (≈ 224 µg/mL)	128 µM (≈ 224 µg/mL)	>512 µM	>512 µM	128 µM (≈ 224 µg/mL)	128 µM (≈ 224 µg/mL)	>512 µM	>512 µM	–	–	–	–
CC[C@H](C)[C@@H]1NC(=O)[C@H](CO)NC(=O)[C@H](Cc2ccccc2)NC(=O)[C@H]([C@@H](C)O)NC(=O)[C@H](Cc2c[nH]c3ccccc23)NC(=O)[C@@H](NC(=O)CNC(=O)[C@H](CCCNC(=N)N)NC(=O)[C@H](CC(C)C)NC(=O)[C@H](C)N)CSSC[C@@H](C(=O)N2CCC[C@H]2C(N)=O)NC(=O)[C@@H]2CCCN2C(=O)[C@H](CCCCN)NC(=O)[C@@H]2CCCN2C(=O)[C@@H]2CCCN2C1=O [F^8-PPF-BBI] (H-ALRGCWTFSIPPKPCP-NH2; disulfide 5-15)	–	–	–	>512 µM	>512 µM	>512 µM	>512 µM	>512 µM	>512 µM	>512 µM	>512 µM	>512 µM	>512 µM	N.I.*	N.I.*	0.85 µM	–
CC[C@H](C)[C@@H]1NC(=O)[C@H](CO)NC(=O)[C@H](CCCCN)NC(=O)[C@H]([C@@H](C)O)NC(=O)[C@H](Cc2c[nH]c3ccccc23)NC(=O)[C@@H](NC(=O)[C@H](CCCNC(=N)N)NC(=O)[C@H](CCCNC(=N)N)NC(=O)[C@H](CCCNC(=N)N)NC(=O)[C@H](CCC(N)=O)NC(=O)[C@H](CCCNC(=N)N)NC(=O)[C@H](CCCNC(=N)N)NC(=O)[C@H](CCCCN)NC(=O)[C@H](CCCCN)NC(=O)[C@@H](N)CCCNC(=N)N)CSSC[C@@H](C(=O)O)NC(=O)[C@@H]2CCCN2C(=O)[C@H](CCCCN)NC(=O)[C@@H]2CCCN2C(=O)[C@@H]2CCCN2C1=O [Tat-loop] (H-RKKRRQRRRCWTKSIPPKPC-OH; disulfide 10-20)	607 nM	–	N.I.*	8 µM (≈ 20.6 µg/mL)	4 µM (≈ 10.3 µg/mL)	128 µM (≈ 330 µg/mL)	128 µM (≈ 330 µg/mL)	256 µM (≈ 660 µg/mL)	256 µM (≈ 660 µg/mL)	128 µM (≈ 330 µg/mL)	128 µM (≈ 330 µg/mL)	512 µM (≈ 1320 µg/mL)	256 µM (≈ 660 µg/mL)	–	lost their inhibitory activity; also recorded: N.I.*	–	low haemolytic activity
CC[C@H](C)[C@@H]1NC(=O)[C@H](CO)NC(=O)[C@H](CCCCN)NC(=O)[C@H]([C@@H](C)O)NC(=O)[C@H](Cc2c[nH]c3ccccc23)NC(=O)[C@@H](N)CSSC[C@@H](C(=O)O)NC(=O)[C@@H]2CCCN2C(=O)[C@H](CCCCN)NC(=O)[C@@H]2CCCN2C(=O)[C@@H]2CCCN2C1=O [TIL, reference compound]	–	–	N.I.*	>512 µM	>512 µM	>512 µM	>512 µM	>512 µM	>512 µM	>512 µM	>512 µM	>512 µM	>512 µM	–	lost their inhibitory activity; also recorded: N.I.*	–	–
